Common to all, as to assay: relative viability (nuclei count vs DMSO), 5 days (fraction); higher = more cells survive
Compound in the test “17-AAG + Lapatinib”: C=CCNC1=C2C[C@@H](C)C[C@H](OC)[C@H](O)[C@@H](C)/C=C(\C)[C@H](OC(N)=O)[C@@H](OC)/C=C\C=C(/C)C(=O)NC(=CC1=O)C2=O [17-AAG] + CS(=O)(=O)CCNCc1ccc(-c2ccc3ncnc(Nc4ccc(OCc5cccc(F)c5)c(Cl)c4)c3c2)o1 [Lapatinib] (partner 2 µM)
In short, it runs like this: (§1)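 Lung cancer cell lines, seeded in 1536-well plates, were treated the following day by pin tool with a single drug or with five library-drug doses (not always all listed) in √10 steps on top of a fixed anchor-drug dose. Cells were fixed and nuclei stained in one step after 5 days, and nuclei were counted. Relative viability is the nuclei count for treated wells divided by that for vehicle wells, reported as medians of duplicate plates.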

Compound in the test “17-AAG + Decitabine”: C=CCNC1=C2C[C@@H](C)C[C@H](OC)[C@H](O)[C@@H](C)/C=C(\C)[C@H](OC(N)=O)[C@@H](OC)/C=C\C=C(/C)C(=O)NC(=CC1=O)C2=O [17-AAG] + Nc1ncn([C@H]2C[C@H](O)[C@@H](CO)O2)c(=O)n1 [Decitabine] (partner 2 µM)
In short, it runs like this:
as §1

Compound in the test “17-AAG + Luminespib”: C=CCNC1=C2C[C@@H](C)C[C@H](OC)[C@H](O)[C@@H](C)/C=C(\C)[C@H](OC(N)=O)[C@@H](OC)/C=C\C=C(/C)C(=O)NC(=CC1=O)C2=O [17-AAG] + CCNC(=O)c1noc(-c2cc(C(C)C)c(O)cc2O)c1-c1ccc(CN2CCOCC2)cc1 [Luminespib] (partner 0.01 µM)
In short, it runs like this: as §1

Compound in the test “17-AAG + Olaparib”: C=CCNC1=C2C[C@@H](C)C[C@H](OC)[C@H](O)[C@@H](C)/C=C(\C)[C@H](OC(N)=O)[C@@H](OC)/C=C\C=C(/C)C(=O)NC(=CC1=O)C2=O [17-AAG] + O=C(c1cc(Cc2n[nH]c(=O)c3ccccc23)ccc1F)N1CCN(C(=O)C2CC2)CC1 [Olaparib] (partner 8 µM)
The procedure, abridged:
as §1

With NCI-H2085, the relative viability was 0.784 with 17-AAG + Lapatinib (first compound 0.00128 µM); 0.802 with 17-AAG + Lapatinib (first compound 0.004048 µM); 0.812 with 17-AAG + Lapatinib (first compound 0.0128 µM); 0.875 with 17-AAG + Lapatinib (first compound 0.04048 µM); 0.527 with 17-AAG + Lapatinib (first compound 0.128 µM); 0.498 with 17-AAG + Decitabine (first compound 0.00128 µM). The relative viability with 17-AAG + Decitabine (first compound 0.004048 µM) worked out at 0.512; in the test with 17-AAG + Decitabine (first compound 0.0128 µM), 0.588; with 17-AAG + Decitabine (first compound 0.04048 µM), 0.57; with 17-AAG + Decitabine (first compound 0.128 µM) it was 0.495; with 17-AAG + Luminespib (first compound 0.00128 µM), 0.521; with 17-AAG + Luminespib (first compound 0.004048 µM), 0.447. For the same cell line, the relative viability in the test with 17-AAG + Luminespib (first compound 0.0128 µM) was determined as 0.462; with 17-AAG + Luminespib (first compound 0.04048 µM), 0.345; with 17-AAG + Luminespib (first compound 0.128 µM), 0.314; with 17-AAG + Olaparib (first compound 0.00128 µM) it was 0.869; with 17-AAG + Olaparib (first compound 0.004048 µM), 0.76; with 17-AAG + Olaparib (first compound 0.0128 µM), 0.78. The relative viability with 17-AAG + Olaparib (first compound 0.04048 µM) stood at 0.748; with 17-AAG + Olaparib (first compound 0.128 µM), 0.674.

Turning to NCI-H1395, the relative viability with 17-AAG + Lapatinib (first compound 0.00128 µM) turned out to be 0.903; with 17-AAG + Lapatinib (first compound 0.004048 µM), 1.12; with 17-AAG + Lapatinib (first compound 0.0128 µM), 0.485; with 17-AAG + Lapatinib (first compound 0.04048 µM) it was 0.406; in the test with 17-AAG + Lapatinib (first compound 0.128 µM), 0.417; in the test with 17-AAG + Decitabine (first compound 0.00128 µM), 0.611. The relative viability with 17-AAG + Decitabine (first compound 0.004048 µM) came to 0.694; in the test with 17-AAG + Decitabine (first compound 0.0128 µM), 0.568; with 17-AAG + Decitabine (first compound 0.04048 µM), 0.387; with 17-AAG + Decitabine (first compound 0.128 µM), 0.383; with 17-AAG + Luminespib (first compound 0.00128 µM), 0.638; with 17-AAG + Luminespib (first compound 0.004048 µM), 0.535. Moreover, the relative viability with 17-AAG + Luminespib (first compound 0.0128 µM) is 0.329; with 17-AAG + Luminespib (first compound 0.04048 µM), 0.359; in the test with 17-AAG + Luminespib (first compound 0.128 µM), 0.331; with 17-AAG + Olaparib (first compound 0.00128 µM), 0.452; in the test with 17-AAG + Olaparib (first compound 0.004048 µM), 0.458; with 17-AAG + Olaparib (first compound 0.0128 µM), 0.359. The values for the relative viability in the test with 17-AAG + Olaparib (first compound 0.04048 µM) and in the test with 17-AAG + Olaparib (first compound 0.128 µM) were 0.37 and 0.418, respectively.

Take NCI-H1648: the relative viability with 17-AAG + Decitabine (first compound 0.004048 µM) was determined as 0.522; in the test with 17-AAG + Decitabine (first compound 0.0128 µM), 0.547; with 17-AAG + Decitabine (first compound 0.04048 µM), 0.38; in the test with 17-AAG + Decitabine (first compound 0.128 µM) it was 0.324; with 17-AAG + Olaparib (first compound 0.004048 µM), 0.716; with 17-AAG + Olaparib (first compound 0.0128 µM) it was 0.921. For the same cell line, the relative viability with 17-AAG + Olaparib (first compound 0.04048 µM) stood at 0.9; in the test with 17-AAG + Olaparib (first compound 0.128 µM), 0.317.

Consider NCI-H520, for which the relative viability is 0.797 with 17-AAG + Lapatinib (first compound 0.00128 µM); 0.654 in the test with 17-AAG + Lapatinib (first compound 0.004048 µM); 0.396 in the test with 17-AAG + Lapatinib (first compound 0.0128 µM); 0.132 in the test with 17-AAG + Lapatinib (first compound 0.04048 µM); 0.112 with 17-AAG + Lapatinib (first compound 0.128 µM); 0.364 with 17-AAG + Decitabine (first compound 0.00128 µM). In addition, the relative viability is 0.555 with 17-AAG + Decitabine (first compound 0.004048 µM); 0.411 with 17-AAG + Decitabine (first compound 0.0128 µM); 0.16 with 17-AAG + Decitabine (first compound 0.04048 µM); 0.171 with 17-AAG + Decitabine (first compound 0.128 µM); 0.236 in the test with 17-AAG + Luminespib (first compound 0.00128 µM); 0.22 with 17-AAG + Luminespib (first compound 0.004048 µM). Also, the relative viability in the test with 17-AAG + Luminespib (first compound 0.0128 µM) was 0.227; with 17-AAG + Luminespib (first compound 0.04048 µM), 0.202; in the test with 17-AAG + Luminespib (first compound 0.128 µM), 0.188; in the test with 17-AAG + Olaparib (first compound 0.00128 µM), 0.34; in the test with 17-AAG + Olaparib (first compound 0.004048 µM) it was 0.232; with 17-AAG + Olaparib (first compound 0.0128 µM), 0.162. Moreover, the relative viability was 0.136 with 17-AAG + Olaparib (first compound 0.04048 µM) and 0.12 in the test with 17-AAG + Olaparib (first compound 0.128 µM).

Turning to A549, the relative viability in the test with 17-AAG + Lapatinib (first compound 0.00128 µM) came to 0.99; with 17-AAG + Lapatinib (first compound 0.004048 µM), 0.548; in the test with 17-AAG + Lapatinib (first compound 0.0128 µM), 0.129; with 17-AAG + Lapatinib (first compound 0.04048 µM), 0.0692; with 17-AAG + Lapatinib (first compound 0.128 µM), 0.0593; with 17-AAG + Decitabine (first compound 0.00128 µM) it was 0.123. The relative viability is 0.271 in the test with 17-AAG + Decitabine (first compound 0.004048 µM); 0.128 with 17-AAG + Decitabine (first compound 0.0128 µM); 0.0399 in the test with 17-AAG + Decitabine (first compound 0.04048 µM); 0.0274 with 17-AAG + Decitabine (first compound 0.128 µM); 0.336 in the test with 17-AAG + Olaparib (first compound 0.00128 µM); 0.338 with 17-AAG + Olaparib (first compound 0.004048 µM). The relative viability with 17-AAG + Olaparib (first compound 0.0128 µM) was determined as 0.0515; with 17-AAG + Olaparib (first compound 0.04048 µM), 0.0272; with 17-AAG + Olaparib (first compound 0.128 µM), 0.0363.

IA-LM: the relative viability with 17-AAG + Lapatinib (first compound 0.00128 µM) stood at 1.06; in the test with 17-AAG + Lapatinib (first compound 0.004048 µM), 0.736; in the test with 17-AAG + Lapatinib (first compound 0.0128 µM), 0.479; with 17-AAG + Lapatinib (first compound 0.04048 µM) it was 0.502; with 17-AAG + Lapatinib (first compound 0.128 µM), 0.0825; with 17-AAG + Olaparib (first compound 0.00128 µM), 0.89. In addition, the relative viability in the test with 17-AAG + Olaparib (first compound 0.004048 µM) was found to be 0.919; with 17-AAG + Olaparib (first compound 0.0128 µM), 0.68; with 17-AAG + Olaparib (first compound 0.04048 µM), 0.179; with 17-AAG + Olaparib (first compound 0.128 µM) it was 0.0981.

On to EKVX, for which the relative viability came to 0.223 in the test with 17-AAG + Lapatinib (first compound 0.00128 µM); 0.218 with 17-AAG + Lapatinib (first compound 0.004048 µM); 0.197 with 17-AAG + Lapatinib (first compound 0.0128 µM); 0.0769 with 17-AAG + Lapatinib (first compound 0.04048 µM); 0.12 with 17-AAG + Lapatinib (first compound 0.128 µM); 0.351 with 17-AAG + Decitabine (first compound 0.00128 µM). The relative viability with 17-AAG + Decitabine (first compound 0.004048 µM) stood at 0.284; with 17-AAG + Decitabine (first compound 0.0128 µM) it was 0.257; in the test with 17-AAG + Decitabine (first compound 0.04048 µM) it was 0.162; with 17-AAG + Decitabine (first compound 0.128 µM) it was 0.139; with 17-AAG + Luminespib (first compound 0.00128 µM), 0.879; with 17-AAG + Luminespib (first compound 0.004048 µM), 0.857. Also, the relative viability with 17-AAG + Luminespib (first compound 0.0128 µM) came out at 0.742; in the test with 17-AAG + Luminespib (first compound 0.04048 µM) it was 0.187; with 17-AAG + Luminespib (first compound 0.128 µM) it was 0.13; with 17-AAG + Olaparib (first compound 0.00128 µM), 0.826; with 17-AAG + Olaparib (first compound 0.004048 µM), 0.762; in the test with 17-AAG + Olaparib (first compound 0.0128 µM), 0.775. The relative viability in the test with 17-AAG + Olaparib (first compound 0.04048 µM) was 0.175; in the test with 17-AAG + Olaparib (first compound 0.128 µM), 0.126.

For ChaGo-K-1, the relative viability in the test with 17-AAG + Decitabine (first compound 0.00128 µM) is 0.444; with 17-AAG + Decitabine (first compound 0.004048 µM) it was 0.55; with 17-AAG + Decitabine (first compound 0.0128 µM), 0.491; with 17-AAG + Decitabine (first compound 0.04048 µM) it was 0.514; in the test with 17-AAG + Decitabine (first compound 0.128 µM), 0.428; with 17-AAG + Luminespib (first compound 0.00128 µM), 0.577. The relative viability with 17-AAG + Luminespib (first compound 0.004048 µM) was determined as 0.627; with 17-AAG + Luminespib (first compound 0.0128 µM), 0.442; with 17-AAG + Luminespib (first compound 0.04048 µM), 0.199; in the test with 17-AAG + Luminespib (first compound 0.128 µM) it was 0.181; in the test with 17-AAG + Olaparib (first compound 0.00128 µM) it was 0.439; with 17-AAG + Olaparib (first compound 0.004048 µM), 0.453. Also, the relative viability with 17-AAG + Olaparib (first compound 0.0128 µM) came out at 0.388; with 17-AAG + Olaparib (first compound 0.04048 µM), 0.366; with 17-AAG + Olaparib (first compound 0.128 µM), 0.257.

SW 900: the relative viability with 17-AAG + Decitabine (first compound 0.00128 µM) is 0.45; with 17-AAG + Decitabine (first compound 0.004048 µM) it was 0.368; in the test with 17-AAG + Decitabine (first compound 0.0128 µM) it was 0.332; with 17-AAG + Decitabine (first compound 0.04048 µM), 0.257; with 17-AAG + Decitabine (first compound 0.128 µM), 0.181; with 17-AAG + Luminespib (first compound 0.00128 µM), 0.183. The relative viability in the test with 17-AAG + Luminespib (first compound 0.004048 µM) came out at 0.172; with 17-AAG + Luminespib (first compound 0.0128 µM) it was 0.19; with 17-AAG + Luminespib (first compound 0.04048 µM), 0.153; with 17-AAG + Luminespib (first compound 0.128 µM), 0.153; with 17-AAG + Olaparib (first compound 0.00128 µM), 0.892; with 17-AAG + Olaparib (first compound 0.004048 µM) it was 0.491. Also, the results for the relative viability with 17-AAG + Olaparib (first compound 0.0128 µM), with 17-AAG + Olaparib (first compound 0.04048 µM) and with 17-AAG + Olaparib (first compound 0.128 µM) were 0.244, 0.192 and 0.163, respectively.

Values taken from the supplement of paper PMC10307832.
